# From ChEMBL document CHEMBL3885861, “Open TG-GATES”
# Species on record: Rattus norvegicus
# Test: Open TG-GATES - Regimen: Daily Repeat
# Format: toxicity, organism-based, Sprague-Dawley
# Set-up: regimen Daily Repeat, gender Male, age 6 weeks
# Conditions: in vivo, po, 100 mg/kg, route gavage, dose level Low; for APTT / Bas / Eos / Fbg / Hb / Ht / Lym / MCH / MCHC / MCV / Mono / Neu / PT / Plat / RBC / Ret / WBC: tissue Blood; for KIDNEY_L / KIDNEY_R / KIDNEY_TOTAL: tissue Kidney; for LIVER: tissue Liver; for A/G / ALP / ALT / AST / BUN / CRE / Ca / Cl / DBIL / GLC / IP / K / LDH / Na / PL / RALB / TBIL / TC / TG / TP / gamma-GTP: tissue Plasma
compound,measurement,setting,value
CC[C@@H](CO)NCCN[C@@H](CC)CO [ETHAMBUTOL],TERMINAL_BW,"72 h, time 3 day",243.1 g
same,APTT,"72 h, time 3 day",21.1 s
same,Bas,"72 h, time 3 day",0%
same,Eos,"72 h, time 3 day",1%
same,Fbg,"72 h, time 3 day",341.6 mg/dL
same,Hb,"72 h, time 3 day",13.4 g/dL
same,Ht,"72 h, time 3 day",38.6%
same,Lym,"72 h, time 3 day",80.4%
same,MCH,"72 h, time 3 day",21.4 pg
same,MCHC,"72 h, time 3 day",34.9%
same,MCV,"72 h, time 3 day",61.5 fL
same,Mono,"72 h, time 3 day",3%
same,Neu,"72 h, time 3 day",14.2%
same,PT,"72 h, time 3 day",15.8 s
same,Plat,"72 h, time 3 day",123.9 x10_4/uL
same,RBC,"72 h, time 3 day",627.8 x10_4/ul
same,Ret,"72 h, time 3 day",6.4%
same,WBC,"72 h, time 3 day",92.5 x10_2/uL
same,KIDNEY_L,"72 h, time 3 day",1.1 g
same,KIDNEY_R,"72 h, time 3 day",1 g
same,KIDNEY_TOTAL,"72 h, time 3 day",2.1 g
same,LIVER,"72 h, time 3 day",12 g
same,A/G,"72 h, time 3 day",1.2
same,ALP,"72 h, time 3 day",1628.8 IU/L
same,ALT,"72 h, time 3 day",45.2 IU/L
same,AST,"72 h, time 3 day",72.4 IU/L
same,BUN,"72 h, time 3 day",17.4 mg/dL
same,CRE,"72 h, time 3 day",0.2 mg/dL
same,Ca,"72 h, time 3 day",10.8 mg/dL
same,Cl,"72 h, time 3 day",107 meq/L
same,DBIL,"72 h, time 3 day",0 mg/dL
same,GLC,"72 h, time 3 day",187 mg/dL
same,IP,"72 h, time 3 day",7.2 mg/dL
same,K,"72 h, time 3 day",4.1 meq/L
same,LDH,"72 h, time 3 day",158.4 IU/L
same,Na,"72 h, time 3 day",140.8 meq/L
same,PL,"72 h, time 3 day",156.4 mg/dL
same,RALB,"72 h, time 3 day",3.1 g/dL
same,TBIL,"72 h, time 3 day",0.016 mg/dL
same,TC,"72 h, time 3 day",82.2 mg/dL
same,TG,"72 h, time 3 day",117.8 mg/dL
same,TP,"72 h, time 3 day",5.6 g/dL
same,gamma-GTP,"72 h, time 3 day",1.6 IU/L
same,TERMINAL_BW,"[…], time 7 day",272 g
same,TERMINAL_BW,"[…], time 14 day",312.5 g
same,TERMINAL_BW,"[…], time 28 day",351.2 g
same,APTT,"[…], time 7 day",22.4 s
same,Bas,"[…], time 7 day",0%
same,Eos,"[…], time 7 day",0.8%
same,Fbg,"[…], time 7 day",340.4 mg/dL
same,Hb,"[…], time 7 day",13.9 g/dL
same,Ht,"[…], time 7 day",40.1%
same,Lym,"[…], time 7 day",80.6%
same,MCH,"[…], time 7 day",21.4 pg
same,MCHC,"[…], time 7 day",34.6%
same,MCV,"[…], time 7 day",62 fL
same,Mono,"[…], time 7 day",2.6%
same,Neu,"[…], time 7 day",14.8%
same,PT,"[…], time 7 day",15.8 s
same,Plat,"[…], time 7 day",125.3 x10_4/uL
same,RBC,"[…], time 7 day",646.8 x10_4/ul
same,Ret,"[…], time 7 day",5.9%
same,WBC,"[…], time 7 day",109.9 x10_2/uL
same,APTT,"[…], time 14 day",22.7 s
same,Bas,"[…], time 14 day",0%
same,Eos,"[…], time 14 day",1.2%
same,Fbg,"[…], time 14 day",318.2 mg/dL
same,Hb,"[…], time 14 day",14 g/dL
same,Ht,"[…], time 14 day",40.9%
same,Lym,"[…], time 14 day",80%
same,MCH,"[…], time 14 day",20.5 pg
same,MCHC,"[…], time 14 day",34.2%
same,MCV,"[…], time 14 day",60 fL
same,Mono,"[…], time 14 day",2.6%
same,Neu,"[…], time 14 day",15%
same,PT,"[…], time 14 day",16.9 s
same,Plat,"[…], time 14 day",110.4 x10_4/uL
same,RBC,"[…], time 14 day",681.8 x10_4/ul
same,Ret,"[…], time 14 day",4.5%
same,WBC,"[…], time 14 day",127.4 x10_2/uL
same,APTT,"[…], time 28 day",23.2 s
same,Bas,"[…], time 28 day",0%
same,Eos,"[…], time 28 day",1%
same,Fbg,"[…], time 28 day",288.8 mg/dL
same,Hb,"[…], time 28 day",14.5 g/dL
same,Ht,"[…], time 28 day",41.9%
same,Lym,"[…], time 28 day",81.2%
same,MCH,"[…], time 28 day",18.3 pg
same,MCHC,"[…], time 28 day",34.7%
same,MCV,"[…], time 28 day",52.9 fL
same,Mono,"[…], time 28 day",2%
same,Neu,"[…], time 28 day",14%
same,PT,"[…], time 28 day",16.6 s
same,Plat,"[…], time 28 day",94.5 x10_4/uL
same,RBC,"[…], time 28 day",792.8 x10_4/ul
same,Ret,"[…], time 28 day",2.6%
same,WBC,"[…], time 28 day",137.8 x10_2/uL
same,KIDNEY_L,"[…], time 7 day",1.1 g
same,KIDNEY_R,"[…], time 7 day",1.1 g
same,KIDNEY_TOTAL,"[…], time 7 day",2.3 g
same,KIDNEY_L,"[…], time 14 day",1.3 g
same,KIDNEY_R,"[…], time 14 day",1.3 g
same,KIDNEY_TOTAL,"[…], time 14 day",2.6 g
same,KIDNEY_L,"[…], time 28 day",1.3 g
same,KIDNEY_R,"[…], time 28 day",1.4 g
same,KIDNEY_TOTAL,"[…], time 28 day",2.7 g
same,LIVER,"[…], time 7 day",13.7 g
same,LIVER,"[…], time 14 day",14.2 g
same,LIVER,"[…], time 28 day",15.1 g
same,A/G,"[…], time 7 day",1.1
same,ALP,"[…], time 7 day",1577.2 IU/L
same,ALT,"[…], time 7 day",42.2 IU/L
same,AST,"[…], time 7 day",67.2 IU/L
same,BUN,"[…], time 7 day",18.2 mg/dL
same,CRE,"[…], time 7 day",0.2 mg/dL
same,Ca,"[…], time 7 day",10.4 mg/dL
same,Cl,"[…], time 7 day",106.6 meq/L
same,DBIL,"[…], time 7 day",0 mg/dL
same,GLC,"[…], time 7 day",185.4 mg/dL
same,IP,"[…], time 7 day",7.6 mg/dL
same,K,"[…], time 7 day",4 meq/L
same,LDH,"[…], time 7 day",154.6 IU/L
same,Na,"[…], time 7 day",141.8 meq/L
same,PL,"[…], time 7 day",147.6 mg/dL
same,RALB,"[…], time 7 day",3 g/dL
same,TBIL,"[…], time 7 day",0.01 mg/dL
same,TC,"[…], time 7 day",74.8 mg/dL
same,TG,"[…], time 7 day",113.6 mg/dL
same,TP,"[…], time 7 day",5.8 g/dL
same,gamma-GTP,"[…], time 7 day",2.4 IU/L
same,A/G,"[…], time 14 day",1.2
same,ALP,"[…], time 14 day",1502.6 IU/L
same,ALT,"[…], time 14 day",47.4 IU/L
same,AST,"[…], time 14 day",75.2 IU/L
same,BUN,"[…], time 14 day",19.6 mg/dL
same,CRE,"[…], time 14 day",0.2 mg/dL
same,Ca,"[…], time 14 day",10.3 mg/dL
same,Cl,"[…], time 14 day",106.4 meq/L
same,DBIL,"[…], time 14 day",0 mg/dL
same,GLC,"[…], time 14 day",195.4 mg/dL
same,IP,"[…], time 14 day",6.8 mg/dL
same,K,"[…], time 14 day",4.1 meq/L
same,LDH,"[…], time 14 day",144.6 IU/L
same,Na,"[…], time 14 day",141 meq/L
same,PL,"[…], time 14 day",132.8 mg/dL
same,RALB,"[…], time 14 day",3 g/dL
same,TBIL,"[…], time 14 day",0.014 mg/dL
same,TC,"[…], time 14 day",67 mg/dL
same,TG,"[…], time 14 day",81 mg/dL
same,TP,"[…], time 14 day",5.5 g/dL
same,gamma-GTP,"[…], time 14 day",2 IU/L
same,A/G,"[…], time 28 day",1.1
same,ALP,"[…], time 28 day",1233.8 IU/L
same,ALT,"[…], time 28 day",47.4 IU/L
same,AST,"[…], time 28 day",77 IU/L
same,BUN,"[…], time 28 day",20.8 mg/dL
same,CRE,"[…], time 28 day",0.2 mg/dL
same,Ca,"[…], time 28 day",9.8 mg/dL
same,Cl,"[…], time 28 day",106.4 meq/L
same,DBIL,"[…], time 28 day",0 mg/dL
same,GLC,"[…], time 28 day",195.6 mg/dL
same,IP,"[…], time 28 day",6 mg/dL
same,K,"[…], time 28 day",3.9 meq/L
same,LDH,"[…], time 28 day",143.6 IU/L
same,Na,"[…], time 28 day",141.8 meq/L
same,PL,"[…], time 28 day",133 mg/dL
same,RALB,"[…], time 28 day",2.9 g/dL
same,TBIL,"[…], time 28 day",0.026 mg/dL
same,TC,"[…], time 28 day",76.8 mg/dL
same,TG,"[…], time 28 day",62.4 mg/dL
same,TP,"[…], time 28 day",5.7 g/dL
same,gamma-GTP,"[…], time 28 day",1.8 IU/L
